The results in this text go back to ChEMBL document CHEMBL1201862, “PubChem BioAssay data set” (2004).

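96-well plates; 48 h exposure; 5 concentrations. Endpoints by linear interpolation between flanking doses. Not reached: highest tested concentration assigned. GI50: concentration for 50% inhibition of growth.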 The source made the active and inactive calls. Rule as the data show it: active = GI50 up to about 1.1 µM and inactive = higher.

Test systems include TK-10; HOP-92; ACHN; BT-549; NCI-H23; HOP-62; HCT-15; SF-295; 786-0; SK-MEL-2; UACC-62; EKVX; MOLT-4; OVCAR-4; M14; SK-OV-3; SK-MEL-28; SNB-75; RXF 393.
What all share (test): DTP human tumour cell line panel, 48 h

Turning to `N#[N+]c1cc2c(cc1Br)-c1ccccc1C2`, the GI50 (in general, the concentration at which growth is held to half of that of the control) with TK-10 is 47.1 µM (inactive); with HOP-92, 11.9 µM (inactive); with ACHN, > 100 µM (inactive); in the assay with BT-549, 70 µM (inactive); with NCI-H23, > 100 µM (inactive); in the assay on HOP-62, > 100 µM (inactive). Further, the 50% growth inhibitory concentration (GI50) in the assay with HCT-15 is greater than 100 µM; in the assay with SF-295, > 100 µM (inactive); in the assay on 786-0, > 100 µM (inactive); in the assay with SK-MEL-2, 83.9 µM (inactive); in the assay with UACC-62, 44.9 µM (inactive); with EKVX it was 24.5 µM (inactive). Also, the GI50 in the assay with MOLT-4 is 10.3 µM (inactive); in the assay with OVCAR-4 it was > 100 µM (inactive); in the assay on M14 it was > 100 µM (inactive); with SK-OV-3, > 100 µM (inactive); with SK-MEL-28, > 100 µM (inactive); in the assay with SNB-75, > 100 µM (inactive). For the same compound, the GI50 with RXF 393 was 78.3 µM (inactive).

As for `CCN(CC)C(=O)COc1cc2c(O)c3c(O)c(C)c4c(c13)C(=O)C(C)(OC=CC(OC)C(C)C(OC(C)=O)C(C)C(O)C(C)C(O)C(C)C=CC=C(C)C(=O)N2)O4` (stereo not given), the GI50 with TK-10, in the assay with HOP-92, in the assay on ACHN, with BT-549, in the assay on NCI-H23 and with HOP-62 was > 100 µM (inactive) each time. For the same compound, the 50% growth inhibitory concentration (GI50) was greater than 100 µM in the assay with HCT-15; > 100 µM (inactive) with SF-295; > 100 µM (inactive) in the assay on 786-0; > 100 µM (inactive) with SK-MEL-2; > 100 µM (inactive) with UACC-62; > 100 µM (inactive) in the assay with EKVX. The GI50 with MOLT-4, in the assay with OVCAR-4, with M14, in the assay with SK-OV-3, in the assay on SK-MEL-28 and in the assay on SNB-75 was > 100 µM (inactive) each time. For the same compound, the GI50 in the assay on RXF 393 is > 100 µM (inactive).

On to `COc1ccc(CNC(C)C(=O)O)cc1` (stereo not given), for which the GI50 with TK-10, with HOP-92, with ACHN, with BT-549, in the assay with NCI-H23 and with HOP-62 was > 100 µM (inactive) in each case. In addition, the concentration for 50% growth inhibition (GI50) in the assay on HCT-15 was greater than 100 µM; in the assay on SF-295 it was > 100 µM (inactive); in the assay on 786-0, > 100 µM (inactive); in the assay with SK-MEL-2, > 100 µM (inactive); with UACC-62, > 100 µM (inactive); in the assay with EKVX, > 100 µM (inactive). Besides, the GI50 in the assay with MOLT-4, with OVCAR-4, with M14, in the assay on SK-OV-3, in the assay with SK-MEL-28 and in the assay on SNB-75 was > 100 µM (inactive) throughout. For the same compound, in the assay with RXF 393, the GI50 was > 100 µM (inactive).

`COc1ccc2c(C=O)c3n(c(=O)c2c1OC)CCc1cc2c(cc1-3)OCO2`: the GI50 is 96.8 µM (inactive) in the assay on TK-10; 10.9 µM (inactive) with HOP-92; 69.2 µM (inactive) in the assay with ACHN; 18.9 µM (inactive) with BT-549; 27.2 µM (inactive) in the assay on NCI-H23; > 100 µM (inactive) with HOP-62. For the same compound, the 50% growth inhibitory concentration (GI50) in the assay on HCT-15 is 27.7 µM; in the assay on SF-295 it was 46 µM (inactive); in the assay on 786-0, 90.2 µM (inactive); in the assay on SK-MEL-2, 25.9 µM (inactive); with UACC-62 it was 21 µM (inactive); in the assay on EKVX, 35.6 µM (inactive). Further, the GI50 is 4.59 µM (inactive) in the assay with MOLT-4; > 100 µM (inactive) in the assay with OVCAR-4; 18.6 µM (inactive) in the assay with M14; > 100 µM (inactive) with SK-OV-3; > 100 µM (inactive) in the assay on SK-MEL-28; 18.9 µM (inactive) in the assay on SNB-75. The GI50 with RXF 393 was 2.91 µM (inactive).

As to `CCOC(CBr)OC1C(=O)OCC1(C)C` (stereo not given), the GI50 in the assay on TK-10, with HOP-92, in the assay with ACHN, in the assay on BT-549, with NCI-H23 and in the assay with HOP-62 was > 100 µM (inactive) in each case. Further, the 50% growth inhibitory concentration (GI50) is greater than 100 µM in the assay with HCT-15; > 100 µM (inactive) in the assay with SF-295; > 100 µM (inactive) with 786-0; > 100 µM (inactive) in the assay with SK-MEL-2; > 100 µM (inactive) in the assay on UACC-62; > 100 µM (inactive) in the assay on EKVX. The GI50 with MOLT-4, in the assay with OVCAR-4, with M14, with SK-OV-3, in the assay with SK-MEL-28 and in the assay with SNB-75 was > 100 µM (inactive) in each case. Besides, the GI50 with RXF 393 was > 100 µM (inactive).

With `CC(=O)NC1C(OCc2ccccc2)OC(CO)C(O)C1OCC(=O)N[C@@H](C)C(=O)N[C@H](CCC(=O)NCCCCNc1c2ccccc2nc2cccc([N+](=O)[O-])c12)C(N)=O` (stereo not given in full), the GI50 with TK-10 was 1.47 µM (inactive); in the assay with HOP-92, 0.748 µM (active); in the assay with ACHN, 1.33 µM (inactive); in the assay with BT-549, 2.74 µM (inactive); in the assay on NCI-H23, 0.984 µM (active); in the assay with HOP-62, 3.69 µM (inactive). In addition, the 50% growth inhibitory concentration (GI50) with HCT-15 was 1.97 µM; in the assay on SF-295 it was 3.88 µM (inactive); in the assay with 786-0 it was 0.998 µM (active); in the assay with SK-MEL-2, 2.51 µM (inactive); in the assay with UACC-62, 1.51 µM (inactive); with EKVX, 2.07 µM (inactive). For the same compound, the GI50 in the assay with MOLT-4 was 1.6 µM (inactive); with OVCAR-4, 0.957 µM (active); in the assay on M14 it was 2.23 µM (inactive); with SK-OV-3 it was 7.59 µM (inactive); in the assay with SK-MEL-28 it was 4.5 µM (inactive); in the assay with SNB-75, 1.79 µM (inactive). Further, the GI50 in the assay on RXF 393 is 1.53 µM (inactive).

In the case of `N=C(N)NS(=O)(=O)c1ccc(NC(=O)c2ccc3nc4ccccc4c(N)c3c2)cc1`, the GI50 in the assay with TK-10, in the assay on HOP-92, with ACHN, in the assay with BT-549, in the assay with NCI-H23 and with HOP-62 was > 100 µM (inactive) throughout. For the same compound, the GI50 in the assay on HCT-15 was greater than 100 µM; in the assay on SF-295 it was > 100 µM (inactive); with 786-0, > 100 µM (inactive); with SK-MEL-2 it was > 100 µM (inactive); in the assay with UACC-62 it was > 100 µM (inactive); in the assay with EKVX, > 100 µM (inactive). In addition, the GI50 in the assay on MOLT-4, in the assay with OVCAR-4, with M14, with SK-OV-3, in the assay with SK-MEL-28 and with SNB-75 was > 100 µM (inactive) each time. For the same compound, the GI50 in the assay with RXF 393 is > 100 µM (inactive).

On to `CCc1c[n+]2c(cc1C1=CN3c4ccccc4[C@]45CCN6C/C(=C/CO)[C@H](C[C@H]64)[C@@H]([C@@H]1O)[C@H]35)-c1[nH]c3ccccc3c1CC2`, for which the GI50 in the assay with TK-10, in the assay with HOP-92, in the assay with ACHN, in the assay with BT-549, with NCI-H23 and with HOP-62 was > 50 µM (inactive) in each case. Moreover, the GI50 in the assay with HCT-15 is greater than 50 µM; with SF-295 it was > 50 µM (inactive); in the assay on 786-0, > 50 µM (inactive); with SK-MEL-2 it was > 50 µM (inactive); in the assay with UACC-62, > 50 µM (inactive); with EKVX, > 50 µM (inactive). Further, the GI50 with MOLT-4, in the assay with OVCAR-4, with M14, in the assay on SK-OV-3, with SK-MEL-28 and in the assay with SNB-75 was > 50 µM (inactive) throughout. The GI50 with RXF 393 is > 50 µM (inactive).

As to `CNc1nc2n(CCO)c(-c3ccccc3)c(-c3ccccc3)nc-2c(=O)n1`, the GI50 with TK-10 is > 50 µM (inactive); with HOP-92 it was > 50 µM (inactive); with ACHN, > 50 µM (inactive); in the assay with BT-549 it was > 50 µM (inactive); with NCI-H23 it was > 50 µM (inactive); in the assay on HOP-62, 22.8 µM (inactive). Besides, the GI50 is greater than 50 µM with HCT-15; > 50 µM (inactive) in the assay on SF-295; > 50 µM (inactive) in the assay on 786-0; > 50 µM (inactive) in the assay with SK-MEL-2; > 50 µM (inactive) with UACC-62; > 50 µM (inactive) in the assay on EKVX. Also, the GI50 in the assay on MOLT-4, with OVCAR-4, in the assay on M14, in the assay on SK-OV-3, in the assay with SK-MEL-28 and in the assay on SNB-75 was > 50 µM (inactive) each time. In addition, the GI50 in the assay with RXF 393 was > 50 µM (inactive).

With `O=[N+]([O-])c1ccc(NN=C2c3ccccc3Cc3ccccc32)c([N+](=O)[O-])c1`, the GI50 was > 100 µM (inactive) in the assay on TK-10; 20.8 µM (inactive) in the assay on HOP-92; 17.7 µM (inactive) in the assay on ACHN; > 100 µM (inactive) with BT-549; 15 µM (inactive) in the assay on NCI-H23; 6.92 µM (inactive) with HOP-62. For the same compound, the 50% growth inhibitory concentration (GI50) in the assay with HCT-15 is 6.43 µM; with SF-295 it was 3.71 µM (inactive); in the assay on 786-0, 10.9 µM (inactive); with SK-MEL-2, 3.44 µM (inactive); with UACC-62, 5.38 µM (inactive); in the assay with EKVX, 5.37 µM (inactive). Besides, the GI50 in the assay with MOLT-4 is 6.87 µM (inactive); in the assay with OVCAR-4, 13.3 µM (inactive); with M14, 5.81 µM (inactive); with SK-OV-3, 7.74 µM (inactive); in the assay with SK-MEL-28 it was > 81.1 µM (inactive); with SNB-75, 4.59 µM (inactive). Moreover, the GI50 in the assay with RXF 393 was > 24.4 µM (inactive).
